Measured values reported in PubChem BioAssay AID2060491 (Molecular Pharmacology Branch, DTP, NCI, 2025).

Test system: 857933-349-R-J2-PDC complex spheroids, viability
Experiment: Anticancer human tumor 857933-349-R-J2-PDC patient-derived colon adenocarcinoma cell line growth inhibition [GQUAD]
Settings: for IC50: curve of first compound; for viability, T/C: stronger effect = lower value; active = viability on the fitted dose curve at most 10% of control; inactive = the rest
Method in brief: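 Viability of tumor cells grown as complex spheroids with endothelial and stromal cells, exposed to drug combinations. Top concentration at or near clinical Cmax (else 10 microM), diluted in half-log increments.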

[1] = second compound 0.0316 µM, first compound 0.0316 µM
[2] = second compound 0.0316 µM, first compound 0.1 µM
[3] = second compound 0.0316 µM, first compound 0.316 µM
[4] = second compound 0.0316 µM, first compound 1 µM
[5] = second compound 0.0316 µM, first compound 3.16 µM
[6] = second compound 0.0316 µM, first compound 10 µM
[7] = second compound 0.1 µM, first compound 0.0316 µM
[8] = second compound 0.1 µM, first compound 0.1 µM
[9] = second compound 0.1 µM, first compound 0.316 µM
[10] = second compound 0.1 µM, first compound 1 µM
[11] = second compound 0.1 µM, first compound 3.16 µM
[12] = second compound 0.1 µM, first compound 10 µM
[13] = second compound 0.316 µM, first compound 0.0316 µM
[14] = second compound 0.316 µM, first compound 0.1 µM
[15] = second compound 0.316 µM, first compound 0.316 µM
[16] = second compound 0.316 µM, first compound 1 µM
[17] = second compound 0.316 µM, first compound 3.16 µM
[18] = second compound 0.316 µM, first compound 10 µM
[19] = second compound 1 µM, first compound 0.0316 µM
[20] = second compound 1 µM, first compound 0.1 µM
[21] = second compound 1 µM, first compound 0.316 µM
[22] = second compound 1 µM, first compound 1 µM
[23] = second compound 1 µM, first compound 3.16 µM
[24] = second compound 1 µM, first compound 10 µM
[25] = second compound 3.16 µM, first compound 0.0316 µM
[26] = second compound 3.16 µM, first compound 0.1 µM
[27] = second compound 3.16 µM, first compound 0.316 µM
[28] = second compound 3.16 µM, first compound 1 µM
[29] = second compound 3.16 µM, first compound 3.16 µM
[30] = second compound 3.16 µM, first compound 10 µM
[31] = second compound 10 µM, first compound 0.0316 µM
[32] = second compound 10 µM, first compound 0.1 µM
[33] = second compound 10 µM, first compound 0.316 µM
[34] = second compound 10 µM, first compound 1 µM
[35] = second compound 10 µM, first compound 3.16 µM
[36] = second compound 10 µM, first compound 10 µM
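Also: spheroids exposed to compounds for one week before readout.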
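For viability, T/C in this document: percent viability relative to vehicle DMSO wells taken as 100%.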

COc1cc(C2c3cc4c(cc3C(OC3OC5COC(C)OC5C(O)C3O)C3COC(=O)C23)OCO4)cc(OC)c1O (centres undefined) + Cc1cnc(CNC(=O)c2c(=O)c3ccc(N4CCCN(C)CC4)nc3n3c2sc2ccccc23)cn1
331 nM: IC50 (second compound 0.0316 µM)
inactive: viability, T/C [1] 66.6% | viability, T/C [2] 52.2% | viability, T/C [3] 43.6% | viability, T/C [4] 47% | viability, T/C [5] 43.6% | viability, T/C [6] 22.9% | viability, T/C [7] 54.1% | viability, T/C [8] 49.4% | viability, T/C [9] 44.5% | viability, T/C [10] 38.2% | viability, T/C [11] 36.2% | viability, T/C [12] 18.4% | viability, T/C [13] 27.8% | viability, T/C [14] 31.1% | viability, T/C [15] 24.8% | viability, T/C [16] 22.8% | viability, T/C [17] 13.7%
active: viability, T/C [18] 6.56% | viability, T/C [19] 5.71% | viability, T/C [20] 6.22% | viability, T/C [21] 5.39% | viability, T/C [22] 5.9% | viability, T/C [23] 4.83% | viability, T/C [24] 3.18% | viability, T/C [25] 3.86% | viability, T/C [26] 2.65% | viability, T/C [27] 2.29% | viability, T/C [28] 2.54% | viability, T/C [29] 2.32% | viability, T/C [30] 1.47% | viability, T/C [31] 1.65% | viability, T/C [32] 1.68% | viability, T/C [33] 1.55% | viability, T/C [34] 2.21% | viability, T/C [35] 0.74% | viability, T/C [36] 0.21%
< 31.6 nM: IC50 (second compound 0.316 µM) | IC50 (second compound 1 µM) | IC50 (second compound 3.16 µM) | IC50 (second compound 10 µM)
104 nM: IC50 (second compound 0.1 µM)

C=CCn1c(=O)c2cnc(Nc3ccc(N4CCN(C)CC4)cc3)nc2n1-c1cccc(C(C)(C)O)n1 + CN(C)c1ccc(Nc2c3ccc(NC(=O)CCN4CCCC4)cc3nc3cc(NC(=O)CCN4CCCC4)ccc23)cc1
1190 nM: IC50 (second compound 3.16 µM)
inactive: viability, T/C [1] 102% | viability, T/C [2] 102% | viability, T/C [3] 96.6% | viability, T/C [4] 75.7% | viability, T/C [5] 26.1% | viability, T/C [6] 27.9% | viability, T/C [7] 101% | viability, T/C [8] 99.4% | viability, T/C [9] 99.2% | viability, T/C [10] 68.6% | viability, T/C [11] 24.3% | viability, T/C [12] 27.3% | viability, T/C [13] 97.7% | viability, T/C [14] 95.3% | viability, T/C [15] 101% | viability, T/C [16] 63.1% | viability, T/C [17] 28.4% | viability, T/C [18] 24.9% | viability, T/C [19] 94.3% | viability, T/C [20] 81.6% | viability, T/C [21] 87.8% | viability, T/C [22] 60.8% | viability, T/C [23] 32.5% | viability, T/C [24] 33.8% | viability, T/C [25] 88% | viability, T/C [26] 73.5% | viability, T/C [27] 75.5% | viability, T/C [28] 53.5% | viability, T/C [29] 31.8% | viability, T/C [30] 28.6% | viability, T/C [31] 62.1% | viability, T/C [32] 62.6% | viability, T/C [33] 57.6% | viability, T/C [34] 47.7% | viability, T/C [35] 32.2% | viability, T/C [36] 25.2%
1840 nM: IC50 (second compound 0.0316 µM)
1650 nM: IC50 (second compound 0.1 µM)
1570 nM: IC50 (second compound 1 µM)
1510 nM: IC50 (second compound 0.316 µM)
756 nM: IC50 (second compound 10 µM)
